Where two headings read alike, the source gives them in different places.
Tests used:
[1] = biological target: LRRK2 (Homo sapiens, UniProt Q5S007); experiment: LRRK2 IC50 (Table 4); format: biochemical
[2] = tested on: 797; experiment: Cell viability, 797 cells (Table 4); format: cell-based; conditions: read-out: IC50 (nM) 797
[3] = biological target: BRDT (Homo sapiens, UniProt Q58F21); experiment: BRDT IC50 (Table 4); format: binding
[4] = biological target: T1, CRBN-DDB1 (Homo sapiens, UniProt Q96SW2); experiment: CRBN-DDB1 Ligand-Displacement AlphaScreen Assay (thalidomide competition); format: binding; conditions: biotin-thalidomide competition; read-out: THAL ALPHA (IC50);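 further: streptavidin donor and nickel chelate acceptor bead proximity signal after 30 min incubation, normalized with no-protein background as 0% and DMSO wells as 100% activity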
T1 construct: 6xHis (given for the complex); made in house; host or cells: Sf9 cells (Invitrogen), pFastBac

[5] = tested on: MV4; 11; experiment: Cell viability, ATPlite 48 hours, MV4-11; format: cell-based; conditions: Homo sapiens, 11 cells
[6] = biological target: T2, CRBN (Homo sapiens, UniProt Q96SW2); experiment: Intracellular CRBN Engagement Assay (dFKBP7 rescue); format: cell-based; conditions: competition with 80 nM dFKBP7, 3 hours; read-out: FKBP7 rescue (EC50)
T2 construct: endogenous in cells

[7] = biological target: T3, BRD4 (Homo sapiens, UniProt O60885); experiment: Immunoblot for BRD4 in MV4-11 cells; format: cell-based
[8] = tested on: MV4-11; experiment: Analysis of apoptotic cells by Caspase Glo assay; format: cell-based; conditions: MV4-11, 4 or 8 hours treatment, assessed at 24 hours
[9] = biological target: FKBP12 (WT) (Homo sapiens, UniProt P62942); experiment: FKBP12 (WT) Ligand-Displacement AlphaScreen Assay; format: binding; conditions: biotin-SLF displacement, read-out: IC50 (nM) FKBP
[10] = biological target: FKBP12 (36V) (Homo sapiens, UniProt P62942, F37V); experiment: FKBP12 (36V) Ligand-Displacement AlphaScreen Assay; format: binding; conditions: biotin-SLF displacement, read-out: IC50 (nM) FKBP 36V
[11] = biological target: T4, BRD4 adjoined to nanoluciferase (Nluc) (Homo sapiens, UniProt O60885+Q96SW2); experiment: BRD4 Dual Luciferase Assay; format: cell-based; conditions: for Emax: read-out: BRD4− Emax (percent remaining);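 on all read-outs here: transduced reporter cells exposed to compound for 4 h, then Nluc and Fluc luminescence read, each normalized to DMSO controls and expressed as Nluc/Fluc ratio per well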
T4 construct: expressed in transfected cells

[12] = tested on: MOLT4; experiment: Cell viability, ATPlite 48 hours, MOLT4; format: cell-based; conditions: Homo sapiens, MOLT-4; MOLT4 cells
[13] = tested on: DND41; experiment: Cell viability, ATPlite 48 hours, DND41; format: cell-based; conditions: DND41 cells
[14] = tested on: CUTL1; experiment: Cell viability, ATPlite 48 hours, CUTLL1; format: cell-based; conditions: CUTL1 cells
[15] = tested on: NGP; experiment: Cell viability, ATPlite 72 hours; format: cell-based; conditions: read-out: IC50 (nM) NGP
[16] = biological target: T3, BRD4; experiment: BRD4 Cell Western (BRD4 levels in 293T cells, LiCOR); format: cell-based; set-up: BRD4 levels in the cells after the dBET treatment; endogenous in cells
[17] = biological target: PLK1 (Homo sapiens, UniProt P53350); experiment: PLK1 IC50 (Table 4); format: biochemical
[18] = biological target: T3, BRD4; experiment: BRD4 AlphaScreen; format: binding; set-up: […]; His tag (inferred from capture on Ni-coated acceptor beads)
[19] = biological target: T5, fusion of mutant FKBP12 to nanoluciferase (Homo sapiens, UniProt P62942+Q96SW2, F37V); experiment: FKBP Dual Luciferase Assay, wild-type 293FT, mutant FKBP12 (36V); format: cell-based; conditions: 4 hours; read-out: Max Degradation (dual luciferase, %) FKBP 36V
T5 construct: expressed in transfected cells

[20] = biological target: T6, fusion of FKBP12 to nanoluciferase (Homo sapiens, UniProt P62942+Q96SW2); experiment: FKBP Dual Luciferase Assay, wild-type 293FT, FKBP12; format: cell-based; conditions: 4 hours; for Dmax: read-out: Max Degradation (dual luciferase, %) FKBP
T6 construct: expressed in transfected cells

[21] = 4 hours, read-out: max degradation (dual luc)
[22] = read-out: BRD4 max degradation(%) Dual Luciferase
[23] = HEK-293T; read-out: BRD4 max degradation(%) Cell Western

| SMILES | IC50 [2] [nM] | IC50 ([3]; read-out: IC50 (nM) BRDT) [nM] | IC50 [5] [nM] | Dmax [11, 21] [%] | Emax ([11]; BRD4 remaining at Emax) [%] | Dmax [11, 22] [%] | IC50 [12] [nM] | IC50 [13] [nM] | IC50 [14] [nM] | IC50 ([15]; NGP cells, Table 4) [nM] | Dmax [16, 23] [%] | also measured |
| --- | --- | --- | --- | --- | --- | --- | --- | --- | --- | --- | --- | --- |
| COc1cc(C(=O)NCCCOCCOCCOCCCNC(=O)COc2cccc3c2C(=O)N(C2CCC(=O)NC2=O)C3=O)ccc1Nc1ncc2c(n1)N(C)c1ccccc1C(=O)N2C (stereo not drawn) [dBET12] | > 20000 | 5870 | > 20000 |  |  |  |  |  |  |  |  | IC50 [1]: 32 nM; IC50 [4]: 0.0238 µM; EC50 [6]: 34.4 µM |
| Cc1sc2c(c1C)C(c1ccc(Cl)cc1)=N[C@@H](CC(=O)OC(C)(C)C)c1nnc(C)n1-2 [JQ1] |  |  |  |  |  |  |  |  |  |  |  | BRD4 degradation by treatment alone [7]: insufficient to induce BRD4 degradation; induction of apoptosis after pulsed treatment and drug washout [8]: did not yield a pronounced apoptotic response |
| CCC(C)(C)C(=O)C(=O)N1CCCC[C@H]1C(=O)O[C@H](CCc1ccc(OC)c(OC)c1)c1cccc(NC(=O)CCC(=O)NCCCCNC(=O)COc2cccc3c2C(=O)N(C2CCC(=O)NC2=O)C3=O)c1 (stereo partly drawn) [dFKBP-1] |  |  |  |  |  |  |  |  |  |  |  | IC50 [9]: 274 nM; IC50 [10]: 237 nM |
| CC[C@@H]1C(=O)N(C)c2cnc(Nc3ccc(C(=O)NCCCCCCNC(=O)COc4cccc5c4C(=O)N(C4CCC(=O)NC4=O)C5=O)cc3OC)nc2N1C1CCCC1 (stereo partly drawn) [dBET7] | 16 | 549 |  | 54.1 | 43.7 | 54 | 46.6 | 31.4 | 29.2 | 131 | 63 | Conc@Emax [11]: 0.5 µM |
| CC[C@@H]1C(=O)N(C)c2cnc(Nc3ccc(C(=O)NCCCOCCOCCOCCCNC(=O)COc4cccc5c4C(=O)N(C4CCC(=O)NC4=O)C5=O)cc3OC)nc2N1C1CCCC1 (stereo partly drawn) [dBET10] | 163 | 309 | 28 | 25.3 | 73.1 | 25 | 452 | 271 | 152 | 413 | 20 | Conc@Emax [11]: 50 µM; IC50 [17]: 10.2 nM; IC50 ([18]; read-out: BRD4 Alpha (IC50)): 83 nM; IC50 ([18]; read-out: IC50 (nM) BRD4): 83 nM; IC50 [4]: 0.0127 µM; EC50 [6]: 8.12 µM |
| COc1ccc(CC[C@@H](OC(=O)[C@@H]2CCCCN2C(=O)Cc2ccccc2)c2cccc(OCC(=O)NCCCCNC(=O)COc3cccc4c3C(=O)N(C3CCC(=O)NC3=O)C4=O)c2)cc1OC (stereo partly drawn) [dFKBP-5] |  |  |  |  |  |  |  |  |  |  |  | Dmax [19]: < 5%; IC50 [10]: 2290 nM; Dmax [20]: 11% |
| Cc1sc2c(c1C)C(c1ccc(Cl)cc1)=N[C@@H](CC(=O)NCCNC(=O)COc1cccc3c1C(=O)N(C1CCC(=O)NC1=O)C3=O)c1nnc(C)n1-2 (stereo partly drawn) [dBET3] |  | 88 |  | 12.7 | 84 | 13 |  |  |  |  | 31.6 | Conc@Emax [11]: 0.5 µM |
| O=C1CCC(N2C(=O)c3ccccc3C2=O)C(=O)N1 (stereo not drawn) [thalidomide] |  |  |  |  |  |  |  |  |  |  |  | BRD4 degradation by treatment alone ([7]; MV4-11, 24 h): insufficient to induce BRD4 degradation |
| Cc1sc2c(c1C)C(c1ccc(Cl)cc1)=N[C@@H](CC(=O)NCCCN1CCN(C(=O)CCCCCNC(=O)COc3cccc4c3C(=O)N(C3CCC(=O)NC3=O)C4=O)CC1)c1nnc(C)n1-2 (stereo partly drawn) [dBET18] | 1360 | 28 |  | 36.5 | 65.4 | 37 | 1920 | 1790 | 2840 | 4960 | 57 | IC50 ([18]; read-out: BRD4 Alpha (IC50)): 11 nM; IC50 ([18]; read-out: IC50 (nM) BRD4): 11 nM; IC50 [4]: 0.00157 µM; EC50 [6]: 749 µM |
| Cc1sc2c(c1C)C(c1ccc(Cl)cc1)=N[C@@H](CC(=O)NCCCOCCOCCOCCCNC(=O)COc1cccc3c1C(=O)N(C1CCC(=O)NC1=O)C3=O)c1nnc(C)n1-2 (stereo partly drawn) [dBET9] | 296 | 52 | 28 | 24.8 | 71 | 25 |  | 1520 | 1550 | 8420 | 41 |  |
| CCC(C)(C)C(=O)C(=O)N1CCC[C@H]1C(=O)O[C@H](CCc1ccc(OC)c(OC)c1)c1cccc(OCC(=O)NCCCCNC(=O)COc2cccc3c2C(=O)N(C2CCC(=O)NC2=O)C3=O)c1 (stereo partly drawn) [dFKBP-3] |  |  |  |  |  |  |  |  |  |  |  | Dmax [19]: 12%; IC50 [10]: 1200 nM; Dmax [20]: 22% |
| Cc1sc2c(c1C)C(c1ccc(Cl)cc1)=N[C@@H](CC(=O)NCCCCCCNC(=O)c1ccc3c(c1)C(=O)N(C1CCC(=O)NC1=O)C3=O)c1nnc(C)n1-2 (stereo partly drawn) [dBET15] | 1270 |  | 312 |  |  | 18 | 6960 | 10400 | 6840 |  |  | Emax [11]: 78.2%; Dmax ([11]; read-out: max degradation (dual luc)): 18.2%; IC50 [3]: 93 nM; IC50 ([15]; NGP): > 20000 nM; Dmax ([16]; HEK-293T, read-out: BRD4 max degradation(%) Cell Western): 24% |
| COc1cc(C(=O)NCCCCNC(=O)COc2cccc3c2C(=O)N(C2CCC(=O)NC2=O)C3=O)ccc1Nc1ncc2c(n1)N(C)c1ccccc1C(=O)N2C (stereo not drawn) [dBET11] | > 20000 | 2900 | 3.38 |  |  |  |  |  |  |  |  | IC50 [1]: 7.3 nM; IC50 ([18]; read-out: BRD4 Alpha (IC50)): 958 nM; IC50 ([18]; read-out: IC50 (nM) BRD4): 958 nM; IC50 [4]: 0.0251 µM; EC50 [6]: 2430 µM |
| CCC(C)(C)C(=O)C(=O)N1CCCC[C@H]1C(=O)O[C@H](CCc1ccc(OC)c(OC)c1)c1cccc(OCC(=O)NCCCCNC(=O)COc2cccc3c2C(=O)N(C2CCC(=O)NC2=O)C3=O)c1 (stereo partly drawn) [dFKBP-4] |  |  |  |  |  |  |  |  |  |  |  | Dmax [19]: 21%; IC50 [10]: 369 nM; DC50 [20]: 2.97 nM; Dmax [20]: 34% |
| Cc1sc2c(c1C)C(c1ccc(Cl)cc1)=N[C@@H](CC(=O)NCCCCCCNC(=O)COc1cccc3c1C(=O)N(C1CCC(=O)NC1=O)C3=O)c1nnc(C)n1-2 (stereo partly drawn) [dBET5] |  | 110 |  | 53 | 44.7 | 53 |  |  |  |  | 66 |  |
| CC[C@@H]1C(=O)N(C)c2cnc(Nc3ccc(C(=O)NCCCCNC(=O)COc4cccc5c4C(=O)N(C4CCC(=O)NC4=O)C5=O)cc3OC)nc2N1C1CCCC1 (stereo partly drawn) [dBET2] | 113 | 405 | 6.3 |  |  |  | 192 | 110 | 81.2 | 156 |  | IC50 [17]: 6.15 nM |
